In US12139481B2, “Compositions comprising macrocycle derivatives incorporating bridged macrocycles and methods of producing and using same” (Southwestern Oklahoma State University, priority 2015, dated 2024):

Key:
[1] = test system: S. mansoni newly transformed schistosomula (NTS); assay: In vitro testing on Schistosoma mansoni newly transformed schistosomula (NTS), viability score; format: cell-based; conditions: NTS S. mansoni, 33 μM, 72 h
Protocol: Assays were prepared according to the laboratory SOP for the lab of Dr. Jennifer Keiser (Swiss Tropical and Public Health Institute, Basel). Harvested S. mansoni cercariae (Liberian strain) obtained from infected Biomphalaria glabrata snails were mechanically transformed into newly transformed schistosomula (NTS) following standard procedures. Briefly, snails were placed under light in the morning to stimulate cercarial shedding. The cercarial suspension was collected, cooled for 30 minutes, and then vigorously pipetted (30×) and vortexed (3 minutes). The suspension was then placed in the incubator (37° C. and 5% CO2) for 30 minutes, and the vortexing and pipetting steps were repeated. The transformation was complete at this point, and the tails were separated from the heads by rinsing three times with cold HBSS. NTS were then incubated overnight in culture medium overnight and used the next day.
The original stock compounds (which were not already dissolved) were dissolved in dimethyl sulfoxide (DMSO) to a concentration of 10 mM. 100 NTS were placed in each well of a 96-well plate with culture medium, and the test compound for a final well volume of 250 μl. […] NTS incubated with no more than 1% DMSO served as control. NTS were kept in an incubator at 37° C. and 5% CO2 for up to 72 hours. After 72 hours, the condition of the NTS was microscopically evaluated using a scale from 3 (normal activity and no tegument alteration) to 0 (dead, completely granulated).

[2] = test system: Cryptococcus neoformans ATCC 90113; assay: Antimicrobial microdilution assay against Cryptococcus neoformans (modified CLSI/NCCLS, optical density); format: cell-based; conditions: for X more potent than Amphotericin B: C. neoformans, ratio of molar IC50 to Amphotericin B; for C. neoformans IC50 / IC50: in vitro, C. neoformans ATCC 90113; for IC50: read-out: C. neoformans IC50 (mol/L)
Outline: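 Broth microdilution (modified CLSI) in RPMI pH 6.0, samples serially diluted in 20% DMSO/saline and tested in duplicate, growth followed by OD630 before and after incubation. MFC is the lowest concentration giving no growth when 5 μL from clear wells is plated on agar.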

C. glabrata ATCC 90030 = assay: Antifungal broth dilution assay against C. glabrata (modified CLSI); format: cell-based, Candida glabrata; conditions: for C. glabrata IC50 / IC50: in vitro; for IC50: converted with molecular weight; for X more potent than Amphotericin B: molar IC50 ratio versus amphotericin B
Outline: (§1)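 Modified CLSI broth microdilution with OD monitoring before and after incubation at 35 °C: Candida in RPMI 1640/MOPS pH 6.0, 1.5×10^3 CFU/ml, 46-50 h; Staphylococcus in cation-adjusted Mueller-Hinton pH 7.3, 5.0×10^5 CFU/ml, 16-20 h. IC50 from curve fit; MIC is the lowest concentration with no growth; MFC/MBC from subculture.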

[3] = test system: methicillin-resistant S. aureus ATCC 33591 (MRS); assay: Antibacterial broth dilution assay against MRSA (modified CLSI); format: cell-based, Staphylococcus aureus; conditions: for MRSa IC50 / IC50: in vitro; for IC50: converted with molecular weight; for X more potent than ciprofloxacen: molar IC50 ratio versus ciprofloxacen
Protocol: General Experimental Procedures. All organisms were obtained from the American Type Culture Collection (Manassas, VA) and include the fungi Candida albicans ATCC 90028, C. glabrata ATCC 90030, C. krusei ATCC 6258, and Cryptococcus neoformans ATCC 90113, and the bacteria Staphylococcus aureus ATCC 29213 and methicillin-resistant S. aureus ATCC 33591 (MRS). All organisms were tested using modified versions of the CLSI (formerly NCCLS) methods. For all organisms, optical density was used to monitor growth (NCCLS, Reference Method for Broth Dilution Antifungal Susceptibility Testing of Yeasts; Approved Standard M27-A2. National Committee on Clinical Laboratory Standards, 2002 22 (15); and NCCLS, Methods for Dilution Antimicrobial Susceptibility Tests for Bacteria that Grow Aerobically; Approved Standard, Seventh Edition M7-A7. National Committee on Clinical Laboratory Standards, 2006. 26(2)).
Samples (dissolved in DMSO) were serially-diluted in 20% DMSO/saline and transferred (10 μL) in duplicate to 96 well flat bottom microplates. Inocula were prepared by correcting the OD630 of microbe suspensions in incubation broth [RPMI 1640/0.2% dextrose/0.03% glutamine/MOPS @ pH 6.0 (Cellgro) for Candida spp., Sabouraud Dextrose for C. neoformans, and cation-adjusted Mueller-Hinton (Difco) @ pH 7.3 for Staphylococcus spp. to afford an assay volume of […] and final target inocula of: Candida spp. and C. neoformans: 1.5×10^3, and Staphylococcus spp.: 5.0×10^5 CFU/ml. Final sample test concentrations were 1/100th the DMSO stock concentration. […] All organisms were read at either 530 nm using the Biotek Powerwave XS plate reader (Bio-Tek Instruments, Vermont) prior to and after incubation: Candida spp. at 35° C. for 46-50 h, Staphylococcus spp. at 35° C. for 16-20 h, and C. neoformans at 35° C. for 70-74 h. IC50s (concentrations that afford 50% inhibition relative to controls) were calculated using XLfit 4.2 software (IDBS, Alameda, CA) using fit model 201. The MIC is defined as the lowest test concentration that allows no detectable growth. Minimum fungicidal or bactericidal concentrations were determined by removing 5 μl from each clear (or blue) well, transferring to fresh media, and incubating as previously mentioned. The MFC/MBC is defined as the lowest test concentration that kills the organism (allows no growth).
Primary Analysis. Samples were tested in duplicate at one test concentration (50 μg/mL), and percent inhibitions were calculated relative to blank and growth controls. Samples showing 50% inhibition in at least one test organism were selected for dose response (Secondary) studies.
Secondary Analysis. Extracts from the Primary Assay, and first-run pure compounds and column fractions were tested in duplicate at 3 test concentrations (5-fold dilutions). Samples dissolved to 20 mg/mL in DMSO were tested at 200, 40, and 8 μg/mL. Samples dissolved to 2 mg/mL in DMSO were tested at 20, 4, and 0.8 μg/mL.

[4] = test system: Staphylococcus aureus ATCC 29213; assay: Antibacterial broth dilution assay against S. aureus (modified CLSI); format: cell-based; conditions: for S. aureus IC50 / IC50: in vitro; for IC50: converted with molecular weight; for X more potent than ciprofloxacen: molar IC50 ratio versus ciprofloxacen
Outline: as §1

[5] = test system: L. donovani promastigotes; assay: Antileishmanial Alamar Blue assay on promastigotes; format: cell-based, Leishmania donovani; conditions: for X more potent than Pentamidine: L. donovani, ratio of molar IC50 to Pentamidine; for L. donovani IC50 / IC50: promastigotes, 48 hours, Alamar Blue; for IC50: read-out: L. donavani IC50
Outline: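 L. donovani promastigotes in RPMI 1640 with 10% FCS, from 3-day culture, were set at 5×10^5/mL and exposed to compound (50-3.1 μg/mL) for 48 hours at 26° C. Growth read by Alamar Blue fluorescence (ex 544/em 590 nm); IC50 from percent growth versus concentration.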

C. krusei ATCC 6258 = assay: Antifungal broth dilution assay against C. krusei (modified CLSI); format: cell-based, Candida krusei
Outline: as §1

Compound | Effect at 72 h (%) [1] [%] | X more potent than Amphotericin B [2] | C. neoformans IC50 [2] [µg/mL] | IC50 [2] [µM] | further results
CC(=O)[O-].CC(=O)[O-].CC(=O)[O-].CN1CCCN2CCN(CCCN(Cc3cc(CN4CCCN5CCN(C)CCCN(CC5)CC4)cc(CN4CCCN5CCN(C)CCCN(CC5)CC4)c3)CC2)CC1.F[P-](F)(F)(F)(F)F.F[P-](F)(F)(F)(F)F.F[P-](F)(F)(F)(F)F.[Cu+2].[Cu+2].[Cu+2] [BNS025] | 18.02 | – | – | – | –
F[P-](F)(F)(F)(F)F.F[P-](F)(F)(F)(F)F.F[P-](F)(F)(F)(F)F.F[P-](F)(F)(F)(F)F.F[P-](F)(F)(F)(F)F.F[P-](F)(F)(F)(F)F.[Ni+2].[Ni+2].[Ni+2].c1c(CN2CCCN3CCN(CCCNCC2)CC3)cc(CN2CCCN3CCN(CCCNCC2)CC3)cc1CN1CCCN2CCN(CCCNCC1)CC2 [CDG024, [Ni3(tris-SB-Cyclams)][PF6]6] | 5.41 | 0.18 | 2.440 | 1.33 | –
CC(=O)[O-].CC(=O)[O-].F[P-](F)(F)(F)(F)F.F[P-](F)(F)(F)(F)F.O.[Ni+2].[Ni+2].c1cc(CN2CCNCCN3CCN(CC3)CC2)ccc1CN1CCNCCN2CCN(CC2)CC1 [OB29, [Ni2(p-SB-Cyclens)(OAc)2][PF6]2•H2O] | 5.41 | 0.31 | ≤ 0.800 | 0.768 | –
CC(=O)[O-].CN1CCCN2CCN(CCCN(Cc3ccccc3)CC2)CC1.F[P-](F)(F)(F)(F)F.[Co+2] [TRH016] | 11.71 | – | – | – | –
CC(=O)[O-].CC(=O)[O-].CN1CCCN2CCN(CCCN(Cc3cccc(CN4CCCN5CCN(C)CCCN(CC5)CC4)c3)CC2)CC1.F[P-](F)(F)(F)(F)F.F[P-](F)(F)(F)(F)F.F[P-](F)(F)(F)(F)F.F[P-](F)(F)(F)(F)F.[Co+3].[Co+3] [CDG010, [Co2(m-CB-Cyclams)(OAc)2][PF6]4] | 11.71 | 0.35 | 0.960 | 0.686 | –
CC(=O)[O-].CC(=O)[O-].CC(=O)[O-].CN1CCN2CCN(CC1)CCN(Cc1cc(CN3CCN4CCN(C)CCN(CC4)CC3)cc(CN3CCN4CCN(C)CCN(CC4)CC3)c1)CC2.F[P-](F)(F)(F)(F)F.F[P-](F)(F)(F)(F)F.F[P-](F)(F)(F)(F)F.O.O.O.O.O.O.[Zn+2].[Zn+2].[Zn+2] [BNS22, [Zn3(tris-CB-Cyclens)(OAc)3][PF6]3•6H2O] | 11.71 | 0.12 | 3.410 | – | –
CC(=O)[O-].CC(=O)[O-].CN1CCN2CCN(CC1)CCN(Cc1cccc(CN3CCN4CCN(C)CCN(CC4)CC3)c1)CC2.F[P-](F)(F)(F)(F)F.F[P-](F)(F)(F)(F)F.[Zn+2].[Zn+2] [DJC07, [Zn2(m-CB-Cyclens)(OAc)2][PF6]2] | 0.00 | 0.03 | 7.410 | – | –
CC(=O)[O-].CC(=O)[O-].F[P-](F)(F)(F)(F)F.F[P-](F)(F)(F)(F)F.[Cu+2].[Cu+2].c1cc(CN2CCNCCN3CCN(CC3)CC2)ccc1CN1CCNCCN2CCN(CC2)CC1 [OB28, [Cu2(p-SB-Cyclens)(OAc)2][PF6]2] | 0.00 | 0.05 | 5.210 | 5.04 | –
[Cu2(m-SB-Cyclams)(OAc)2][PF6]2 [KS24] | 18.02 | 0.08 | 3.180 | 3.08 | –
[Zn2(p-CB-cyclam-cyclen)(OAc)][PF6]3•4H2O [CMB030] | – | 0.22 | 1.380 | 1.1 | C. glabrata IC50 (C. glabrata ATCC 90030): 4.190 µg/mL; IC50 (C. glabrata ATCC 90030): 3.35 µM; X more potent than Amphotericin B (C. glabrata ATCC 90030): 0.42; MRSa IC50 [3]: 8.760 µg/mL; IC50 [3]: 7 µM; X more potent than ciprofloxacen [3]: 0.03; S. aureus IC50 [4]: 7.86 µg/mL; IC50 [4]: 6.28 µM; X more potent than ciprofloxacen [4]: 0.04; X more potent than Pentamidine [5]: 0.21; L. donovani IC50 [5]: 31.32 µg/mL; IC50 [5]: 25 µM
CC(=O)[O-].CC(=O)[O-].CN1CCN2CCN(CC1)CCN(Cc1cccc(CN3CCN4CCN(C)CCN(CC4)CC3)c1)CC2.F[P-](F)(F)(F)(F)F.F[P-](F)(F)(F)(F)F.[Cu+2].[Cu+2] [DJC06A, [Cu2(m-CB-Cyclens)(OAc)2][PF6]2] | 5.41 | 0.04 | 6.710 | 6.32 | –
[Co2(p-CB-cyclam-cyclen)(OAc)2][PF6]2 [CMB027] | – | 0.32 | ≤ 0.800 | 0.74 | C. glabrata IC50 (C. glabrata ATCC 90030): 1.320 µg/mL; IC50 (C. glabrata ATCC 90030): 1.22 µM; X more potent than Amphotericin B (C. glabrata ATCC 90030): 1.16; MRSa IC50 [3]: 5.390 µg/mL; IC50 [3]: 4.99 µM; X more potent than ciprofloxacen [3]: 0.04; S. aureus IC50 [4]: 7.36 µg/mL; IC50 [4]: 6.81 µM; X more potent than ciprofloxacen [4]: 0.04; X more potent than Pentamidine [5]: 0.18; L. donovani IC50 [5]: 32.62 µg/mL; IC50 [5]: 30.2 µM
c1c(CN2CCCN3CCN(CCCNCC2)CC3)cc(CN2CCCN3CCN(CCCNCC2)CC3)cc1CN1CCCN2CCN(CCCNCC1)CC2 [CDG019] | 0.00 | – | – | – | –
c1c(CN2CCNCCN3CCN(CC3)CC2)cc(CN2CCNCCN3CCN(CC3)CC2)cc1CN1CCNCCN2CCN(CC2)CC1 [CDG029] | 24.32 | – | – | – | –
m-SB-cyclens HCl salt [OB25B] | – | 0.74 | 0.300 | 0.324 | X more potent than Amphotericin B (C. krusei ATCC 6258; C. krusei, ratio of molar IC50 to amphotericin B): 0.21; C. krusei IC50 (C. krusei ATCC 6258; in vitro): 6.530 µg/mL; IC50 (C. krusei ATCC 6258; in vitro, read-out: C. krusei IC50 (mol/L)): 7.05 µM; MRSa IC50 [3]: 5.450 µg/mL; IC50 [3]: 5.88 µM; X more potent than ciprofloxacen [3]: 0.04; S. aureus IC50 [4]: 5.940 µg/mL; IC50 [4]: 6.41 µM; X more potent than ciprofloxacen [4]: 0.04; X more potent than Pentamidine [5]: 0.43; L. donovani IC50 [5]: 11.45 µg/mL; IC50 [5]: 12.4 µM
